Values of other authors as cited in patent US20250152987A1 (priority 2022, published 2025).

System: SARS CoV-2 virus

SMILES: CN(C)c1ccc2nc3ccc(=[N+](C)C)cc-3sc2c1 [methylene blue]
- inactivation of SARS CoV-2 virus: inactivation
